Data as given in patent US20050032873A1, “3-Amino chroman and 2-amino tetralin derivatives” (Wyeth, priority 2003, published 2005).
Counter-ions that a name gives are not always drawn.

For CCCCCN(CCCc1c[nH]c2ccc(F)cc12)C1COc2c(F)ccc(C(N)=O)c2C1 (stereo not shown) (as salt: hydrochloride) [Compound 71, 8-fluoro-3-[[3-(5-fluoro-1H-indol-3-yl)propyl](pentyl)amino]chromane-5-carboxamide], the melting point was 128 °C (dec.). For NC(=O)c1ccc(F)c2c1OCC(NCCCc1c[nH]c3ccc(F)cc13)C2 (stereo not shown) (as salt: hydrochloride) [Compound 119, 5-fluoro-3-{[3-(5-fluoro-1H-indol-3-yl)propyl]amino}chromane-8-carboxamide], the melting point was 124 °C (dec.). In the case of COC(=O)c1ccc(F)c2c1C[C@H](N(CCCCc1c[nH]c3ccc(F)cc13)C1CCC1)CO2 (as salt: hydrochloride) [Compound 58a, Methyl (3S)-3-{cyclobutyl[4-(5-fluoro-1H-indol-3-yl)butyl]amino}-8-fluorochromane-5-carboxylate], the melting point is reported as 209 °C (dec.). For NC(=O)c1ccc(F)c2c1CC(N(CCCc1c[nH]c3cc(F)ccc13)C1CCC1)CO2 (stereo not shown) (as salt: hydrochloride) [Compound 53, 3-{cyclobutyl[3-(6-fluoro-1H-indol-3-yl)propyl]amino}-8-fluorochromane-5-carboxamide], the melting point was 126 °C (dec.). For NC(=O)c1ccc(F)c2c1CC(NCCCCc1c[nH]c3ccc(F)cc13)CO2 (stereo not shown) (as salt: hydrochloride) [Compound 79, 8-fluoro-3-{[4-(5-fluoro-1H-indol-3-yl)butyl]amino}chromane-5-carboxamide], the melting point was 52 °C (dec.). For NC(=O)c1ccc(F)c2c1CC(NCCCc1c[nH]c3ccc(F)cc13)CO2 (single isomer, unassigned; (+)) (as salt: hydrochloride) [Compound 1a, (+)-8-fluoro-3-{[3-(5-fluoro-1H-indol-3-yl)propyl]amino}chromane-5-carboxamide], the melting point was 89 °C (dec.). With CCCN(CCCc1c[nH]c2c(Cl)cccc12)C1COc2c(F)ccc(C(N)=O)c2C1 (stereo not shown) (as salt: hydrochloride) [Compound 113, 3-[[3-(7-chloro-1H-indol-3-yl)propyl](propyl)amino]-8-fluorochromane-5-carboxamide] the melting point was 145 to 154 °C (dec.). With NC(=O)c1ccc(F)c2c1CC(NCCCc1c[nH]c3ccc(F)cc13)CO2 (stereo not shown) (as salt: hydrochloride) [Compound 1, 8-fluoro-3-{[3-(5-fluoro-1H-indol-3-yl)propyl]amino}chromane-5-carboxamide] the melting point was 122 °C (dec.). With NC(=O)c1ccc(F)c2c1OCC(NCCCCc1c[nH]c3ccc(F)cc13)C2 (stereo not shown) (as salt: hydrochloride) [Compound 123, 5-fluoro-3-{[4-(5-fluoro-1H-indol-3-yl)butyl]amino}chromane-8-carboxamide] the melting point was 119 °C (dec.). COc1cccc2c1CC(N(CCCc1c[nH]c3ccccc13)CC1CC1)CO2 (stereo not shown) (as salt: hydrochloride) [Compound 43, N-(cyclopropylmethyl)-N-[3-(1H-indol-3-yl)propyl]-N-(5-methoxy-3,4-dihydro-2H-chromen-3-yl)amine] showed a melting point of 107 to 110 °C. In the case of COc1cccc2c1CC(N(CCCc1c[nH]c3ccc(F)cc13)CC1CCC1)CO2 (stereo not shown) (as salt: hydrochloride) [Compound 42, N-(cyclobutylmethyl)-N-[3-(5-fluoro-1H-indol-3-yl)propyl]-N-(5-methoxy-3,4-dihydro-2H-chromen-3-yl)amine], the melting point is reported as 115 °C (dec.). With NC(=O)c1ccc(F)c2c1OCC(N(CCCCc1c[nH]c3ccc(F)cc13)CC1CC1)C2 (stereo not shown) (as salt: hydrochloride) [Compound 125, 3-{(cyclopropylmethyl)[4-(5-fluoro-1H-indol-3-yl)butyl]amino}-5-fluorochromane-8-carboxamide] the melting point was 116 °C (dec.). In the case of COc1cccc2c1CC(N(CCCc1c[nH]c3ccc(C#N)cc13)CC1CC1)CO2 (stereo not shown) (as salt: hydrochloride) [Compound 45, 3-{3-[(cyclopropylmethyl)(5-methoxy-3,4-dihydro-2H-chromen-3-yl)amino]propyl}-1H-indole-5-carbonitrile], the melting point is reported as 123 to 127 °C (dec.).
